pIC50: −log10 of the molar value. Active and inactive are the calls of the source. No rule for the calls is given here.
Tested on: 697B B-cell line, NF-kB luciferase reporter luminescence
Assay: inhibitors of B-cell NF-kB luciferase signal – 697B cells, luminescence, selectivity assay for T-cell antigen receptor NF-kB inhibitors, dose response (AID 489033)

SMILES | IC50 | pIC50
CCCC(=O)NC(c1ccccc1Cl)c1ccc2cccnc2c1O (centres undefined) | > 80 µM (inactive) | 
CCc1cc(C(=O)NC2CCCc3c2cnn3-c2cccc(C)c2C)n(C)n1 (centres undefined) | > 80 µM (inactive) | 
Cc1cc(C)cc(NC(=O)c2cc(C)n(Cc3cccs3)c2C)c1 | 24.1 µM (inactive) | 
O=C(NCc1cccs1)C1CCN(c2ccc(S(=O)(=O)N3CCOCC3)cc2Cl)CC1 | > 80 µM (inactive) | 
Cc1ccc(-n2ncc3c(N4CCN(c5ccccc5)CC4)ncnc32)c(C)c1 |  | 5.27
Cc1ccsc1/C=N/NC(=O)c1cc(-c2ccncc2)nc2ccccc12 |  | 5.62
COc1ccc(Cl)cc1NC(=O)CN(C)CC(=O)Nc1ccccc1N1CCOCC1 | > 80 µM (inactive) | 
CCOC(=O)c1c(C)[nH]c(C(=O)N/N=C/c2ccc(Br)cc2)c1C | > 80 µM (inactive) | 
O=S(=O)(Nc1ccc(F)cc1Cl)c1ccc(-c2cnc(C3CC3)o2)cc1 | 73.4 µM (inactive) | 
Cc1c(C(=O)OCC(C)C)[nH]c2c1C(=O)CC(c1cccs1)C2 (centres undefined) | > 80 µM (inactive) | 
CC[n+]1cc(C)ccc1/C=C/c1ccc(N(C)C)cc1 | > 80 µM (inactive) | 
CCOc1ccccc1C(=O)Nc1ccc2nc(N3CCN(c4ncccn4)CC3)cc(C)c2c1 |  | 5.33
Oc1ccc(Nc2nc3ccccc3nc2Nc2ccc(O)cc2)cc1 |  | 5.43
CCOc1ccccc1C1CC(=O)Nc2cc3c(cc21)OCO3 (centres undefined) | > 80 µM (inactive) | 
CCOc1ccc(Br)cc1C1=CC(=O)C[C@H](c2ccc(OC)cc2)C1 | > 80 µM (inactive) | 
COc1ccccc1CNS(=O)(=O)c1ccc(-c2cc(C)no2)cc1 | > 80 µM (inactive) | 
CCOC(=O)Nc1nc(-c2ccccc2)c(C(=O)c2ccc(Cl)cc2)s1 | > 80 µM (inactive) | 
CCOC(=O)N/N=C/c1c(C)nn(-c2cccc(C(F)(F)F)c2)c1Cl | > 80 µM (inactive) | 
CCN(CC)S(=O)(=O)c1cc(NC(=O)CNc2cccc(S(=O)(=O)N3CCCC3)c2)ccc1C | > 80 µM (inactive) | 
COc1ccc2c(C)nc(Nc3nc(-c4ccccc4)cc(=O)[nH]3)nc2c1 | > 80 µM (inactive) | 
C=CCn1c(SCc2c(C)noc2C)nc2ccccc2c1=O | > 80 µM (inactive) | 
O=C(Nc1cccc(C(F)(F)F)c1)c1sc(Cl)nc1C(F)(F)F |  | 5.86
COC(=O)c1cn(NC(=O)c2cc([N+](=O)[O-])ccc2F)c(=O)c2ccccc12 |  | 5.61
C=C(C)[C@@]12OC3(c4ccccc4)O[C@@H]1C1[C@@H]4O[C@]4(CO)[C@@H](O)[C@]4(O)C(=O)C(C)=C[C@H]4[C@@]1(O3)[C@H](C)[C@H]2OC(=O)/C=C/C=C/c1ccccc1 (some centres undefined) | 38.9 µM (inactive) | 

SMILES | IC50 | pIC50
Cc1cc(-c2ccc(S(=O)(=O)N(C)c3ccc(C)c(C)c3)s2)on1 | > 80 µM (inactive) | 
COc1ccccc1N=C(C)C1=C(O)CC(c2ccccc2)CC1=O (centres undefined) | > 80 µM (inactive) | 
Cc1ccc2[nH]c(-c3cccc(F)c3)cc(=O)c2c1 | > 80 µM (inactive) | 
Cc1ccc(Oc2ccc(OCC(=O)Nc3ccncc3)cc2)cc1 | 58.6 µM (inactive) | 
CC(=O)N1c2ccc(S(=O)(=O)N3CCC(C(=O)Nc4cccc(C)n4)CC3)cc2CC1C (centres undefined) |  | 6.10
Cc1ccc2c(c1)C=CC(C#N)N2C(=O)c1ccccc1 (centres undefined) | > 80 µM (inactive) | 
Cc1ccccc1NC1=C/C(=N\S(=O)(=O)c2cccs2)c2ccccc2C1=O |  | 5.17
COc1ccc(N/N=C/c2c(C(=O)O)ccc3ccccc23)cc1 | 58.4 µM (inactive) | 
CCC(O)C1CCN(C(=O)c2cc(COc3ccc4ncccc4c3)on2)CC1 (centres undefined) |  | 5.41
CCC(C)C(=O)N[C@@H](c1ccccc1)[C@@H](O)C(=O)O[C@H]1C[C@@]2(O)[C@@H](OC(=O)c3ccccc3)C3[C@](C)(C(=O)[C@H](OC(C)=O)C(=C1C)C2(C)C)[C@@H](O)C[C@H]1OC[C@@]31OC(C)=O (some centres undefined) | > 80 µM (inactive) | 
CC1(C)CC(N2CCN(C(c3ccccc3)c3ccccc3)CC2)=CC(=[N+]2CCCCC2)C1 |  | 5.79
COc1cc(NS(=O)(=O)c2ccc(OC)c(C)c2C)c(OC)cc1Cl | > 80 µM (inactive) | 
Cc1cccc(NS(=O)(=O)c2ccc(-c3cnc(C4CC4)o3)cc2)c1C | 36.7 µM (inactive) | 
Brc1ccc2c(c1)C(C1=NCCN1)c1ccccc1CS2 (centres undefined) | > 80 µM (inactive) | 
CN(Cc1ccccc1)C1=CC(=[N+]2CCCCC2)CC(C)(C)C1 | > 80 µM (inactive) | 
O[C@@H]1[C@@H](O)C=C2CCN3Cc4cc5c(cc4[C@H]1C23)OCO5 (some centres undefined) |  | 5.48
COc1ccc(OC)c2c1C(=O)C(Cl)=C(Cl)C2=O |  | 5.39
O=C(Nc1ccc(F)cc1)c1ccc(CN2CCc3ccccc3C2)cc1 | > 80 µM (inactive) | 
Cc1ccc2c(c1)sc(-c1ccc(N(C)C)cc1)[n+]2C | 33.6 µM (inactive) | 
CN(C)c1ccc(-[n+]2c(-c3ccccc3)cc(-c3ccccc3)cc2-c2ccccc2)cc1 |  | 6.10
Cc1c(C)c2ccc(OCC(=O)Nc3ccccn3)c(C)c2oc1=O |  | 5.12
COc1cc(-c2noc(C)c2C#Cc2ccsc2)cc(OC)c1OC | 77.7 µM (inactive) | 
CCN(CC)c1ccc(NC(=O)c2cc(OC)cc(OC)c2)c(C)c1 | > 80 µM (inactive) | 
CCCCCn1c2c(c(=N)c3ccccc31)CCC2 | 50.3 µM (inactive) | 

SMILES | IC50 | pIC50
Cc1sc2ncnc(NC3CCN(Cc4ccccc4)CC3)c2c1C |  | 5.60
Cc1ccc(S(=O)(=O)/N=C2\C=C(Nc3ccc(O)cc3)C(=O)c3ccccc32)cc1 |  | 5.69
O=C(NCCc1ccccc1)c1ccc2c(c1)OCCO2 |  | 5.95
CCOC(=O)CC1CCCCN1C(=O)c1cc(COc2cccc3cnccc23)on1 (centres undefined) | > 80 µM (inactive) | 
CCCOCCOC(=O)c1[nH]c2c(c1C)C(=O)CC(c1cc(OC)ccc1OC)C2 (centres undefined) | > 80 µM (inactive) | 
Cc1oc2c(c1C(=O)NCc1cccnc1)C(=O)c1ccccc1C2=O |  | 5.33
C/C=C(\C)C(=O)N[C@@H](c1ccccc1)[C@@H](O)C(=O)O[C@H]1C[C@@]2(O)[C@@H](OC(=O)c3ccccc3)C3[C@](C)(C(=O)[C@H](OC(C)=O)C(=C1C)C2(C)C)[C@H](O)C[C@H]1OC[C@@]31OC(C)=O (some centres undefined) | > 80 µM (inactive) | 
Cc1ccc2c(c1)COc1c3ccc(C(=O)O)cc3nn1-2 |  | 4.87
O=C(Nc1ccncc1)c1ccc(Cl)c(S(=O)(=O)N2CCc3ccccc32)c1 | 61.9 µM (inactive) | 
Cc1cccc(N2CCN(C(=O)c3ccc4[nH]c(C)c(C)c4c3)CC2)c1C | > 80 µM (inactive) | 
Cc1ccc(NS(=O)(=O)c2ccc(C(=O)NC3CCN(Cc4ccccc4)CC3)cc2)cc1 | 45.5 µM (inactive) | 
COc1cccc(/C=N/Nc2ncnc3c2ncn3Cc2ccccc2)c1O | 23.4 µM (inactive) | 
NC(=O)CC(NC(=O)c1ccc(Br)cc1)c1ccc(N2CCCCCC2)c([N+](=O)[O-])c1 (centres undefined) | 47.5 µM (inactive) | 
C/C=C(\C)C(=O)N[C@@H](c1ccccc1)[C@@H](O)C(=O)O[C@H]1C[C@@]2(O)[C@@H](OC(=O)c3ccccc3)C3[C@](C)(C(=O)[C@H](OC(C)=O)C(=C1C)C2(C)C)[C@@H](O)C[C@H]1OC[C@@]31OC(C)=O (some centres undefined) | > 80 µM (inactive) | 
O=C(N[C@@H](Cc1ccccc1)C(=O)CCl)OCc1ccccc1 |  | 5.24
CCSc1nc2ccccc2n1C(=O)/C=C\c1ccc(OC)c(OC)c1 |  | 5.33
COc1ccccc1N1CCN(C(=O)c2ccc(-c3ccc(Cl)cc3)o2)CC1 | 66.5 µM (inactive) | 
CCC(=O)N1c2ccc(S(=O)(=O)N3CCN(c4ccc([N+](=O)[O-])cc4)CC3)cc2CC1C (centres undefined) | > 80 µM (inactive) | 
COc1cccc(C2CC(=O)Nc3cc4c(cc32)CCC4)c1 (centres undefined) | > 80 µM (inactive) | 
Cn1cc(C(=O)N/N=C/c2c(O)ccc3ccccc23)ccc1=O | > 80 µM (inactive) | 
CSc1ccc(COC(=O)c2cc([N+](=O)[O-])ccc2N2CCOCC2)cc1 | 30 µM (inactive) | 
CCOC(=O)c1[nH]c(C)c(C(=O)Nc2ccc(C)cc2C)c1C | 42.3 µM (inactive) | 
CCc1ccc(/C=N/NC(=O)c2cc(C3CC3)nc3ccccc23)s1 | 23.3 µM (inactive) | 
COc1ccc(CCNc2nnc(Sc3nnnn3-c3ccccc3)s2)cc1OC |  | 4.72

SMILES | IC50 | pIC50
CCOc1ccc(-c2[nH]ncc2-c2ccc(OC)c(OC)c2)c(O)c1 | > 80 µM (inactive) | 
Cc1csc2sc(-c3ccnc(SCC(=O)NCc4ccccc4)n3)c(C)c12 | > 80 µM (inactive) | 
COc1cc2nc(CN3CC=C(c4ccccc4)CC3)[nH]c(=O)c2cc1OC |  | 4.86
COc1ccc(-[n+]2c(-c3ccccc3)cc(-c3ccc(C)cc3)cc2-c2ccccc2)cc1 |  | 5.08
Cc1cccc(N2CCN(C(=O)c3ccc(CS(=O)(=O)c4ccccc4C)o3)CC2C)c1 (centres undefined) | 22.3 µM (inactive) | 
C=CCSc1nc2ccccc2n1C(=O)/C=C/c1cc(OC)c(OC)c(OC)c1 | > 80 µM (inactive) | 
COc1cccc(-c2cc(=O)c3cc(NC(=O)c4ccc(N(C)C)cc4)ccc3[nH]2)c1 | > 80 µM (inactive) | 
COc1ccc(-n2nnnc2-c2cccc(OC)c2)cc1 | > 80 µM (inactive) | 
CCCCS(=O)(=O)/C=C\C=C/S(=O)(=O)CCCC |  | 5.45
COc1ccc(/C=c2/sc3n(c2=O)C(c2ccccc2OC)C2=C(N=3)c3ccccc3CC2)cc1O (centres undefined) | > 80 µM (inactive) | 
O=C(Nc1ccc(CSc2ccccc2)cc1)c1ccc(CN2CCOCC2)cc1 | > 80 µM (inactive) | 
CCc1c(C)nc2ncnn2c1NCCc1ccc(OC)cc1 | > 80 µM (inactive) | 
COc1cc(C(=O)N/N=C/c2cc([N+](=O)[O-])cs2)cc(OC)c1OC |  | 5.25
CCc1ccc(N2C(=O)C(Cl)=C(Nc3ccc(C(=O)N4CCCC4)cc3)C2=O)cc1 |  | 5.64
O=C(N/N=C/c1c(O)ccc2ccccc12)c1cccc(C(F)(F)F)c1 |  | 4.73
COc1ccc(C(NC(=O)C(C)C)c2ccc3cccnc3c2O)cc1 (centres undefined) | > 80 µM (inactive) | 
COc1cc(C(=O)Nc2ccc3c(c2)ncn3C)cc(OC)c1OC | > 80 µM (inactive) | 
CC#CC(=O)N1CCC(n2nccc2NC(=O)c2ccc3c(c2)OCO3)CC1 | > 80 µM (inactive) | 
Cn1ncnc2c(=O)n(C)c(=O)nc1-2 |  | 5.55
O=[N+]([O-])c1ccc(O)c(/C=N/Nc2ccc(Cl)nn2)c1 | > 80 µM (inactive) | 
COc1ccc(C(=O)N2CCN(c3ccc([N+](=O)[O-])c(NCCc4ccc(OC)c(OC)c4)c3)CC2)cc1 | > 80 µM (inactive) | 
C(=N\Nc1nc2ccccc2s1)/c1ccccn1 |  | 6.41

From PubChem BioAssay AID489033 (Sanford-Burnham Center for Chemical Genomics, 2010)
